Source: ChEMBL document CHEMBL1201861, “Genomics of Drug Sensitity in Cancer screening data, Wellcome Trust Sanger Institute”
pIC50: −log10 of the molar value.

Key:
Assay in all cases: cells
Assay type in all cases: functional, cell-based
Conditions in all cases: Homo sapiens
NCI-H460 = tested on: NCI-H460;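 further: cell viability assay scoring growth inhibition of human NCI-H460 cells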
Description: SANGER: Inhibition of human NCI-H460 cell growth in a cell viability assay.

Kasumi 1 = tested on: Kasumi 1;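 further: growth inhibition of human Kasumi-1 cells, read out by a cell viability assay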
Description: SANGER: Inhibition of human KASUMI-1 cell growth in a cell viability assay.

RMG-I = tested on: RMG-I;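 further: growth inhibition of human RMG-I cells, read out with a cell viability assay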
Description: SANGER: Inhibition of human RMG-I cell growth in a cell viability assay.

NCI-H596 = tested on: NCI-H596;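 further: growth inhibition of NCI-H596 cells, read out with a cell viability assay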
Description: SANGER: Inhibition of human NCI-H596 cell growth in a cell viability assay.

D-247MG = tested on: D-247MG
Description: SANGER: Inhibition of human D-247MG cell growth in a cell viability assay.

NCI-H2009 = tested on: NCI-H2009;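 further: cell viability assay measuring inhibition of NCI-H2009 cell growth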
Description: SANGER: Inhibition of human NCI-H2009 cell growth in a cell viability assay.

HCC38 = tested on: HCC38;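 further: cell viability assay on the human HCC38 cell line, with IC50 marking the concentration that inhibits cell growth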
Description: SANGER: Inhibition of human HCC38 cell growth in a cell viability assay.

NUGC-3 = tested on: NUGC-3;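 further: growth inhibition of human NUGC-3 cells, read out with a cell viability assay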
Description: SANGER: Inhibition of human NUGC-3 cell growth in a cell viability assay.

HMV-2 cell line = tested on: HMV-2 cell line;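 further: growth inhibition of HMV-II cells, read out with a cell viability assay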
Description: SANGER: Inhibition of human HMV-II cell growth in a cell viability assay.

SW756 = tested on: SW756;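 further: growth inhibition of human SW756 cells, read out with a cell viability assay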
Description: SANGER: Inhibition of human SW756 cell growth in a cell viability assay.

SW1783 = tested on: SW1783;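 further: cell growth inhibition measured with a viability assay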
Description: SANGER: Inhibition of human SW1783 cell growth in a cell viability assay.

T-24 = tested on: T-24;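 further: growth inhibition of T-24 cells, read out with a cell viability assay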
Description: SANGER: Inhibition of human T-24 cell growth in a cell viability assay.

HN = tested on: HN
Description: SANGER: Inhibition of human HN cell growth in a cell viability assay.

HCT-116 = tested on: HCT-116
Description: SANGER: Inhibition of human HCT-116 cell growth in a cell viability assay.

MOLT-13 = tested on: MOLT-13;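 further: IC50 for suppression of MOLT-13 cell growth, read out with a cell viability assay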
Description: SANGER: Inhibition of human MOLT-13 cell growth in a cell viability assay.

HuO-3N1 = tested on: HuO-3N1;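 further: cell viability readout used to measure how strongly compounds suppress proliferation of human HuO-3N1 cells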
Description: SANGER: Inhibition of human HuO-3N1 cell growth in a cell viability assay.

RPMI-2650 = tested on: RPMI-2650
Description: SANGER: Inhibition of human RPMI-2650 cell growth in a cell viability assay.

CAL-54 = tested on: CAL-54;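 further: growth inhibition of CAL-54 cells, read out by a viability measurement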
Description: SANGER: Inhibition of human CAL-54 cell growth in a cell viability assay.

NCI-H2347 = tested on: NCI-H2347;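 further: growth inhibition of the cell line, read out with a cell viability assay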
Description: SANGER: Inhibition of human NCI-H2347 cell growth in a cell viability assay.

SJRH30 = tested on: SJRH30;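 further: growth inhibition of human SJRH30 cells, read out with a cell viability assay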
Description: SANGER: Inhibition of human SJRH30 cell growth in a cell viability assay.

YKG-1 = tested on: YKG-1;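 further: cell growth inhibition, read out with a viability assay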
Description: SANGER: Inhibition of human YKG-1 cell growth in a cell viability assay.

MG-63 = tested on: MG-63;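 further: growth inhibition of human MG-63 cells, read out with a cell viability assay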
Description: SANGER: Inhibition of human MG-63 cell growth in a cell viability assay.

EPLC-272H = tested on: EPLC-272H
Description: SANGER: Inhibition of human EPLC-272H cell growth in a cell viability assay.

T47D = tested on: T47D;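 further: growth inhibition of human T47D cells, measured with a cell viability assay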
Description: SANGER: Inhibition of human T47D cell growth in a cell viability assay.

CAL-39 = tested on: CAL-39;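 further: cell viability assay measuring growth inhibition of CAL-39 cells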
Description: SANGER: Inhibition of human CAL-39 cell growth in a cell viability assay.

AN3-CA = tested on: AN3-CA;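 further: growth inhibition of human AN3-CA cells measured by a cell viability assay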
Description: SANGER: Inhibition of human AN3-CA cell growth in a cell viability assay.

EFM-19 = tested on: EFM-19;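 further: growth inhibition of human EFM-19 cells, measured in a cell viability assay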
Description: SANGER: Inhibition of human EFM-19 cell growth in a cell viability assay.

PA-1 = tested on: PA-1;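 further: IC50 for suppression of PA-1 cell proliferation, determined with a cell viability read-out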
Description: SANGER: Inhibition of human PA-1 cell growth in a cell viability assay.

OVCAR-8 = tested on: OVCAR-8;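 further: growth inhibition of human OVCAR-8 cells, read out by a cell viability assay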
Description: SANGER: Inhibition of human OVCAR-8 cell growth in a cell viability assay.

U-251 = tested on: U-251;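 further: growth inhibition of human U-251 cells, read out through a cell viability assay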
Description: SANGER: Inhibition of human U251 cell growth in a cell viability assay.

Hs-578T = tested on: Hs-578T
Description: SANGER: Inhibition of human Hs-578-T cell growth in a cell viability assay.

CAL-33 = tested on: CAL-33;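 further: growth inhibition of CAL-33 cells, read out with a cell viability assay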
Description: SANGER: Inhibition of human CAL-33 cell growth in a cell viability assay.

LCLC-97TM1 = tested on: LCLC-97TM1;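 further: cell viability assay measuring growth inhibition of human LCLC-97TM1 cells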
Description: SANGER: Inhibition of human LCLC-97TM1 cell growth in a cell viability assay.

SW780 = tested on: SW780;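 further: growth inhibition of the cells, read out with a cell viability assay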
Description: SANGER: Inhibition of human SW780 cell growth in a cell viability assay.

SNU-423 = tested on: SNU-423
Description: SANGER: Inhibition of human SNU-423 cell growth in a cell viability assay.

DK-MG = tested on: DK-MG;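 further: growth inhibition of DK-MG cells, read out with a cell viability assay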
Description: SANGER: Inhibition of human DK-MG cell growth in a cell viability assay.

KYSE-150 cell line = tested on: KYSE-150 cell line;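 further: growth inhibition of human KYSE-150 cells, read out with a cell viability assay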
Description: SANGER: Inhibition of human KYSE-150 cell growth in a cell viability assay.

VMRC-RCZ = tested on: VMRC-RCZ;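 further: growth inhibition measured with a cell viability assay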
Description: SANGER: Inhibition of human VMRC-RCZ cell growth in a cell viability assay.

TCC-SUP = tested on: TCC-SUP;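 further: growth inhibition of TCC-SUP cells, read out with a cell viability assay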
Description: SANGER: Inhibition of human TCCSUP cell growth in a cell viability assay.

HOP-92 = tested on: HOP-92;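 further: cell viability readout, with IC50 reflecting inhibition of HOP-92 cell growth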
Description: SANGER: Inhibition of human HOP-92 cell growth in a cell viability assay.

MC-IXC = tested on: MC-IXC;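 further: growth inhibition of MC-IXC cells, read out with a cell viability assay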
Description: SANGER: Inhibition of human MC-IXC cell growth in a cell viability assay.

YH-13 = tested on: YH-13;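 further: cell viability readout of growth suppression in the human YH-13 cell line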
Description: SANGER: Inhibition of human YH-13 cell growth in a cell viability assay.

CAMA-1 = tested on: CAMA-1;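 further: growth inhibition of CAMA-1 cells, read out with a cell viability assay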
Description: SANGER: Inhibition of human CAMA-1 cell growth in a cell viability assay.

CAL-27 = tested on: CAL-27;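 further: Viability-based readout, IC50 reflecting inhibition of CAL-27 cell growth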
Description: SANGER: Inhibition of human CAL-27 cell growth in a cell viability assay.

C3A = tested on: C3A;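 further: growth inhibition of C3A human cells, quantified with a cell viability readout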
Description: SANGER: Inhibition of human C3A cell growth in a cell viability assay.

Ca-Ski = tested on: Ca-Ski;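 further: cell viability assay measuring inhibition of Ca-Ski cell growth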
Description: SANGER: Inhibition of human Ca-Ski cell growth in a cell viability assay.

TGW = tested on: TGW;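 further: growth inhibition of human TGW cells, read out with a cell viability assay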
Description: SANGER: Inhibition of human TGW cell growth in a cell viability assay.

HCC2157 = tested on: HCC2157;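 further: growth inhibition of the cancer cell line, read out as cell viability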
Description: SANGER: Inhibition of human HCC2157 cell growth in a cell viability assay.

Measured: pIC50

Cn1cc(/C=C2\C(=O)Nc3cccnc32)c2ccccc21
< 5.70: NCI-H460 | Kasumi 1 | RMG-I | NCI-H596 | D-247MG | NCI-H2009 | HCC38 | NUGC-3 | HMV-2 cell line | SW1783 | HN | HCT-116 | MOLT-13 | HuO-3N1 | RPMI-2650 | CAL-54 | NCI-H2347 | SJRH30 | YKG-1 | MG-63 | EPLC-272H | T47D | CAL-39 | AN3-CA | EFM-19 | PA-1 | OVCAR-8 | U-251 | Hs-578T | CAL-33 | LCLC-97TM1 | SW780 | SNU-423 | DK-MG | KYSE-150 cell line | VMRC-RCZ | TCC-SUP | HOP-92 | MC-IXC | YH-13 | CAMA-1 | CAL-27 | C3A | Ca-Ski
6.36: SW756
6.20: T-24

COc1cc(Nc2c(C#N)cnc3cc(OCCCN4CCN(C)CC4)c(OC)cc23)c(Cl)cc1Cl [BOSUTINIB]
< 5.70: NCI-H460 | RMG-I | NCI-H596 | D-247MG | NCI-H2009 | HCC38 | HMV-2 cell line | SW1783 | T-24 | HCT-116 | MOLT-13 | HuO-3N1 | RPMI-2650 | NCI-H2347 | YKG-1 | MG-63 | EPLC-272H | T47D | CAL-39 | AN3-CA | EFM-19 | PA-1 | OVCAR-8 | U-251 | Hs-578T | LCLC-97TM1 | SW780 | SNU-423 | DK-MG | KYSE-150 cell line | VMRC-RCZ | TCC-SUP | HOP-92 | MC-IXC | YH-13 | CAMA-1 | C3A | Ca-Ski
6.03: CAL-27
5.89: NUGC-3
5.92: CAL-33
6.14: Kasumi 1
6.85: SW756
5.72: HN
5.78: CAL-54

Cn1c(=O)n(-c2ccc(C(C)(C)C#N)cc2)c2c3cc(-c4cnc5ccccc5c4)ccc3ncc21 [DACTOLISIB]
7.19: TCC-SUP
6.87: D-247MG
7.17: HuO-3N1 | T47D | EFM-19 | SNU-423
7.09: NCI-H460
7.79: NUGC-3
6.89: HCC2157
7.15: MC-IXC
6.12: TGW
7.81: VMRC-RCZ
6.62: CAL-54
7.50: OVCAR-8
8.01: CAMA-1
6.81: Ca-Ski
7.08: LCLC-97TM1
7.66: YH-13
7.42: CAL-39 | U-251
7.93: PA-1
< 5.70: C3A
6.84: SJRH30
7.61: Hs-578T
6.88: HCT-116
7.58: HOP-92
7.35: EPLC-272H
7.59: KYSE-150 cell line
6.57: HCC38
6.74: DK-MG
6.33: RMG-I
6.66: CAL-27
7.28: RPMI-2650 | YKG-1
7.36: T-24
7.63: MG-63
6.96: SW1783
7.07: CAL-33
8.25: AN3-CA
6.76: NCI-H2347
8.22: HN
6.95: MOLT-13
6.26: SW756
6.64: NCI-H596
7.64: SW780

CC(=O)c1c(C)c2cnc(Nc3ccc(N4CCNCC4)cn3)nc2n(C2CCCC2)c1=O [PALBOCICLIB]
6.00: KYSE-150 cell line
5.71: SW780
5.97: CAL-39
5.95: TGW
5.46: HOP-92 | YH-13
6.11: T-24
6.09: U-251
5.44: NCI-H460
5.81: HN
5.55: NUGC-3
5.74: YKG-1
6.31: CAL-27
6.29: PA-1
5.90: Hs-578T
5.79: MG-63
5.77: T47D
5.66: CAL-54
5.99: MOLT-13
6.08: CAMA-1
5.47: VMRC-RCZ
< 5.40: RMG-I | NCI-H596 | D-247MG | HCC38 | SW756 | SW1783 | HCT-116 | HuO-3N1 | RPMI-2650 | NCI-H2347 | SJRH30 | EPLC-272H | AN3-CA | EFM-19 | OVCAR-8 | CAL-33 | LCLC-97TM1 | SNU-423 | DK-MG | TCC-SUP | HCC2157 | MC-IXC | C3A | Ca-Ski

CCCS(=O)(=O)Nc1ccc(F)c(C(=O)c2c[nH]c3ncc(Cl)cc23)c1F [PLX-4720]
5.54: HuO-3N1
< 5.00: NCI-H460 | RMG-I | NCI-H596 | D-247MG | NCI-H2009 | HCC38 | NUGC-3 | HMV-2 cell line | SW756 | SW1783 | T-24 | HN | HCT-116 | TGW | MOLT-13 | RPMI-2650 | CAL-54 | NCI-H2347 | SJRH30 | YKG-1 | MG-63 | EPLC-272H | T47D | CAL-39 | AN3-CA | EFM-19 | OVCAR-8 | U-251 | Hs-578T | CAL-33 | LCLC-97TM1 | SW780 | SNU-423 | DK-MG | KYSE-150 cell line | VMRC-RCZ | TCC-SUP | HCC2157 | HOP-92 | MC-IXC | YH-13 | CAMA-1 | CAL-27 | C3A | Ca-Ski
5.56: PA-1

C[C@]1(c2nc3c(C(N)=O)cccc3[nH]2)CCCN1 [VELIPARIB]
< 5.30: NCI-H460 | Kasumi 1 | RMG-I | NCI-H596 | D-247MG | NCI-H2009 | HCC38 | NUGC-3 | HMV-2 cell line | SW756 | SW1783 | T-24 | HN | HCT-116 | MOLT-13 | HuO-3N1 | RPMI-2650 | CAL-54 | NCI-H2347 | YKG-1 | MG-63 | EPLC-272H | T47D | CAL-39 | AN3-CA | EFM-19 | PA-1 | OVCAR-8 | U-251 | Hs-578T | CAL-33 | LCLC-97TM1 | SW780 | SNU-423 | DK-MG | KYSE-150 cell line | VMRC-RCZ | TCC-SUP | HOP-92 | MC-IXC | YH-13 | CAMA-1 | CAL-27 | C3A | Ca-Ski
